Consider 25 compounds from article PMC6009858, “Tricyclic coumarin sulphonate derivatives with alkaline phosphatase inhibitory effects: in vitro and docking studies” (Journal of Enzyme Inhibition and Medicinal Chemistry, 2018).

In data set [1] the target is T1, human intestinal alkaline phosphatase (h-IAP) (Homo sapiens, UniProt P09923).
T1 sequence (P09923 20-528): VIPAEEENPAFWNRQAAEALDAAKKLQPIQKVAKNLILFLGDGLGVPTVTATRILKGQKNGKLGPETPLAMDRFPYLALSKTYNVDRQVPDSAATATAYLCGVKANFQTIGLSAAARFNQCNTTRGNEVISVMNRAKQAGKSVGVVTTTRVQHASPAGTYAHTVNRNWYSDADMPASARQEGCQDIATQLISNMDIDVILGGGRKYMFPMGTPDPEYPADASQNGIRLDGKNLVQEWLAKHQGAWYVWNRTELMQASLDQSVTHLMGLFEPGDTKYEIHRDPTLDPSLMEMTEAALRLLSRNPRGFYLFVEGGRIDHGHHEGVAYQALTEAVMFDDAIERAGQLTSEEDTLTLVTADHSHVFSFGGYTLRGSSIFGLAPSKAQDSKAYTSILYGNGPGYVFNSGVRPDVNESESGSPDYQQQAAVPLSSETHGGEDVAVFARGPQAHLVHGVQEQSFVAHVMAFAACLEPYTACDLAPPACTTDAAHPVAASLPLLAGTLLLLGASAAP
The experiment in a line: Alkaline phosphatase inhibition assay (h-IAP), CDP-star luminescence. It counts as biochemical. To be noted: for IC50: IC50 ± SEM, n = 3, DEA buffer. As to the method: (§1) The inhibition assay was performed by following the already reported method[18] and the inhibitory activity was measured at the final concentration of 200 µM in diethanolamine (DEA) buffer as discussed in our published article. The first step of the inhibition assay was the treatment of 10 µl of tested derivatives with 20 µl of h-TNAP (46 ng/well) or of h-IAP (57 ng/well). The plates were incubated at 37 °C for 5–10 min, and luminescence signals were recorded by microplate reader (BioTek FLx800, Instruments, Inc., Winooski, VT). Then, 20 µl of CDP-star® substrate was added to each reaction mixture and signals were again measured as after-read, after 15–20 min of incubation. The data were scrutinised by PRISM 5.0 (GraphPad, San Diego, CA) software and the inhibitory concentration values (IC50 values) were attained as discussed earlier.

Data set [2] concerns the target T2, human tissue nonspecific alkaline phosphatase (h-TNAP) (Homo sapiens, UniProt P05186).
T2 sequence (P05186 18-524): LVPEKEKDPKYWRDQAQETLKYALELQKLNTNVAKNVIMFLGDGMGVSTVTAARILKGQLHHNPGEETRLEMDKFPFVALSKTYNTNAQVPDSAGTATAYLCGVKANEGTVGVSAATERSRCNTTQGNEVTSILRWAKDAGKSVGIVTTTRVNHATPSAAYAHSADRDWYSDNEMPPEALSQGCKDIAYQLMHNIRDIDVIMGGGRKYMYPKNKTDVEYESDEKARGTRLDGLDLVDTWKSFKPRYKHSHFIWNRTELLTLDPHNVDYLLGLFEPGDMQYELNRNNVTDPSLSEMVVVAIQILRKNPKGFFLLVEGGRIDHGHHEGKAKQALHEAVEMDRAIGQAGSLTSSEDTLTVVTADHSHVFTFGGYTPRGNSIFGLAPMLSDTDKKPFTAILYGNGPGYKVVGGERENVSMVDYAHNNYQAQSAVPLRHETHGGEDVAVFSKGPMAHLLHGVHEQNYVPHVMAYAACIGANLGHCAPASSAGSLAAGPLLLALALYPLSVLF
The data set can be described thus: Alkaline phosphatase inhibition assay (h-TNAP), CDP-star luminescence. To be noted: for IC50: IC50 ± SEM, n = 3, DEA buffer; for selectivity h-TNAP over h-IAP (in words): h-TNAP versus h-IAP. It is filed as biochemical. The procedure: as §1, with “The plates were incubated at 37 °C for 5–10 min, and luminescence signals were recorded by microplate reader (BioTek FLx800, Instruments, Inc., Winooski, VT).” left out

The next data set concerns colon cancer cell line. Also on record: method as in PMID 24360561, PMID 25016229, PMID 27779319. To be noted: previously reported data; cited from earlier work.
On the set-up of data set [3]: method as in PMID 24360561, PMID 25016229, PMID 27779319. To be noted: previously reported data; cited from earlier work.

In the case of `CS(=O)(=O)Oc1ccc2c3c(c(=O)oc2c1)CCCCC3` [Compound 1a], the results for the IC50 in data set [1] and in data set [2] were 1.98 ± 0.19 µM and 0.48 ± 0.01 µM, respectively.

Take `CCS(=O)(=O)Oc1ccc2c3c(c(=O)oc2c1)CCCCC3` [Compound 1b]: the concentration for half-maximal inhibition (IC50) (commonly the concentration at which inhibition is half-maximal) in data set [1] was determined as 2.71 ± 0.23 µM; in data set [2], 2.13 ± 0.19 µM.

For the compound `CCCS(=O)(=O)Oc1ccc2c3c(c(=O)oc2c1)CCCCC3` [Compound 1c], the values for the IC50 in data set [1] and in data set [2] were 0.91 ± 0.06 µM and 1.52 ± 0.17 µM, respectively.

Turning to `O=c1oc2cc(OS(=O)(=O)C3CC3)ccc2c2c1CCCCC2` [Compound 1d], the IC50 in data set [1] was found to be 0.96 ± 0.08 µM; in data set [2], 0.98 ± 0.13 µM.

As to `O=c1oc2cc(OS(=O)(=O)c3ccccc3)ccc2c2c1CCCCC2` [Compound 1e], the IC50 came out at 1.84 ± 0.19 µM in data set [1] and 8.57 ± 0.73 µM in data set [2].

As for `Cc1ccc(S(=O)(=O)Oc2ccc3c4c(c(=O)oc3c2)CCCCC4)cc1` [Compound 1f], the IC50 in data set [1] is 1.94 ± 0.11 µM; in data set [2], 0.38 ± 0.01 µM.

As for `O=c1oc2cc(OS(=O)(=O)c3ccc(F)cc3)ccc2c2c1CCCCC2` [Compound 1i], the melting point – broadly, the temperature, or range, at which the solid turns liquid – fell in the range of 147 to 149 °C. Also, in data set [1], inhibition was half-maximal at 0.45 ± 0.09 µM (IC50). The compound also returned a half-maximal inhibitory concentration (IC50) in data set [2] of 1.06 ± 0.11 µM. Moreover, the “antiproliferative effect against colon cancer cell line (in words)” value in the data set on colon cancer cell line is on record as “strongest antiproliferative derivatives”. Moreover, the “anti-inflammatory effects (in words)” value in data set [3] is given as “maximum anti-inflammatory effects”.

Take `CCS(=O)(=O)Oc1ccc2c3c(c(=O)oc2c1)CCCCCC3` [Compound 1j]: the figures for the IC50 in data set [1] and in data set [2] were 0.84 ± 0.09 µM and 1.74 ± 0.14 µM, respectively.

For `CCCS(=O)(=O)Oc1ccc2c3c(c(=O)oc2c1)CCCCCC3` [Compound 1k], the IC50 in data set [1] turned out to be 3.37 ± 0.79 µM; in data set [2] it was 1.91 ± 0.11 µM.

As for `O=c1oc2cc(OS(=O)(=O)c3ccccc3)ccc2c2c1CCCCCC2` [Compound 1l], the half-inhibitory concentration (IC50) was found to be 2.82 ± 0.82 µM in data set [1] and 1.13 ± 0.21 µM in data set [2].

Turning to `Cc1ccc(S(=O)(=O)Oc2ccc3c4c(c(=O)oc3c2)CCCCCC4)cc1` [Compound 1m], the IC50 in data set [1] amounted to 2.12 ± 0.23 µM; in data set [2] it was 1.59 ± 0.16 µM. Moreover, the “antiproliferative effect against colon cancer cell line (in words)” value in the data set on colon cancer cell line was “strongest antiproliferative derivatives”. For the same compound, in data set [3], the “anti-inflammatory effects (in words)” value is recorded as “maximum anti-inflammatory effects”.

For `COc1cc2c3c(c(=O)oc2cc1OS(C)(=O)=O)CCCCC3` [Compound 1o], the IC50 in data set [1] was found to be 11.8 ± 1.91 µM; in data set [2], 1.21 ± 0.11 µM.

In the case of `COc1cc2c3c(c(=O)oc2cc1OS(C)(=O)=O)CCCCCC3` [Compound 1p], the figures for the half-inhibitory concentration (IC50) in data set [1] and in data set [2] were 1.51 ± 0.17 µM and 1.49 ± 0.13 µM, respectively.

`CCCS(=O)(=O)Oc1cc2oc(=O)c3c(c2cc1OC)CCCCC3` [Compound 1q]: the concentration for half-maximal inhibition (IC50) was more than 100 µM in data set [1] and 4.31 ± 0.99 µM in data set [2]. Moreover, the “selectivity h-TNAP over h-IAP (in words)” value in data set [2] is recorded as “selective inhibitors of h-TNAP”.

`CCCS(=O)(=O)Oc1cc2oc(=O)c3c(c2cc1OC)CCCCCC3` [Compound 1r]: the IC50 amounted to 0.75 ± 0.07 µM in data set [1] and 2.6 ± 0.49 µM in data set [2].

Regarding `COc1cc2c3c(c(=O)oc2cc1OS(=O)(=O)c1ccccc1)CCCCC3` [Compound 1s], the IC50 stood at 3.88 ± 0.32 µM in data set [1] and 1.26 ± 0.07 µM in data set [2].

Regarding `COc1cc2c3c(c(=O)oc2cc1OS(=O)(=O)c1ccccc1)CCCCCC3` [Compound 1t], the values for the concentration for half-maximal inhibition (IC50) in data set [1] and in data set [2] were 0.83 ± 0.06 µM and 2.68 ± 0.18 µM, respectively.

Regarding `COc1cc2c3c(c(=O)oc2cc1OS(=O)(=O)c1ccc(C)cc1)CCCCC3` [Compound 1u], the IC50 amounted to 0.79 ± 0.05 µM in data set [1] and 1.65 ± 0.13 µM in data set [2].

Consider `COc1cc2c3c(c(=O)oc2cc1OS(=O)(=O)c1ccc(C)cc1)CCCCCC3` [Compound 1v], for which the concentration for half-maximal inhibition (IC50) in data set [1] turned out to be 1.45 ± 0.04 µM; in data set [2], 0.64 ± 0.02 µM.

Regarding `COc1cc2c3c(c(=O)oc2cc1OS(=O)(=O)c1ccc(C(F)(F)F)cc1)CCCCC3` [Compound 1w], the IC50 in data set [1] and in data set [2] was more than 100 µM each time.

Consider `COc1cc2c3c(c(=O)oc2cc1OS(=O)(=O)c1ccc(C(F)(F)F)cc1)CCCCCC3` [Compound 1x], for which the figures for the IC50 in data set [1] and in data set [2] were 1.63 ± 0.19 µM and 1.29 ± 0.12 µM, respectively.

Regarding `CS(=O)(=O)Oc1cc2oc(=O)c3c(c2cc1Cl)CCCCC3` [Compound 1y], in data set [1], the “activity towards h-IAP (in words)” value is “inactive” and the IC50 was more than 100 µM. The half-maximal inhibitory concentration (IC50) in data set [2] was more than 100 µM.

In the case of `O=c1oc2cc(OS(=O)(=O)c3ccccc3)c(Cl)cc2c2c1CCCCC2` [Compound 1z], in data set [1], the “activity towards h-IAP (in words)” value is “inactive” and the IC50 was more than 100 µM. In data set [2], the IC50 stood at 5.73 ± 1.06 µM and the “selectivity h-TNAP over h-IAP (in words)” value was “selective inhibitors of h-TNAP”.

As to `Cc1ccc(S(=O)(=O)Oc2cc3oc(=O)c4c(c3cc2Cl)CCCCC4)cc1` [Compound 1za], the IC50 stood at 1.11 ± 0.01 µM in data set [1] and 2.22 ± 0.27 µM in data set [2].

In data set [1], `N[C@@H](Cc1ccccc1)C(=O)O` [L-Phenylalanine, reference compound] had a half-inhibitory concentration (IC50) of 100 µM.
